Source: patent publication US12128035B2, “Activating pyruvate kinase R” (Novo Nordisk Health Care AG, priority 2021, dated 2024)

Columns and labels:
[1] = Phase 1 food effect cohort in healthy subjects; type: in vivo, human; conditions: 400 mg with and without food
Description: Four healthy SAD cohorts were evaluated at doses of 200, 400, 700, and 1000 mg, and four healthy MAD cohorts received 200 to 600 mg total daily doses for 14 days at QD or BID dosing (100 mg BID, 200 mg BID, 300 mg BID, and 400 mg QD). In the food effect (FE) cohort, 10 healthy subjects received 400 mg of Compound 1 QD with and without food. […] FIG. 22 illustrates plasma Compound 1 pharmacokinetics in healthy volunteers following a single dose. […] No significant changes in exposure were observed after 14 days of dosing. Compound 1 exposure under fed/fasted conditions was similar.

[2] = test system: p50 (PO2 at 50% hemoglobin saturation); experiment: Phase 1: p50 (oxygen affinity) in SCD patients; type: in vivo, human
Description: In SCD patients, the mean absolute change in p50, relative to baseline, measured 24 hours after a single 700 mg dose of Compound 1, was −4 mmHg.
With respect to the bar graphs representing the “Untreated” and “Treated” subjects in the SCD MAD cohort, the bar on the left side represents the P50 measured Pre-Dose, and the bar on the right side represents the P50 measured after 14 days of Compound 1, 300 mg once daily. SCD RBCs have higher P50 at baseline compared to HV RBCs. In the MAD cohort in SCD patients (300 mg QD for 14 days), the mean absolute change in p50, relative to baseline, measured 24 hours after the final dose of Compound 1, was −4 mmHg.
The oxygen affinity of RBCs was measured in patient blood using a Hemox Analyzer (TCS Scientific Corp.), an automatic system for the recording of blood oxygen equilibrium curves and related phenomena. The Hemox Analyzer was used according to standard methods to determine the hemoglobin-oxygen dissociation curves for whole blood samples, numerically characterized by the p50, the partial pressure of oxygen at which hemoglobin is 50% saturated. […] In the case of hemoglobin, the wavelength of maximum absorbance is the measuring wavelength (560 nm), while the reference wavelength is at the isosbestic point at (570 nm). The absorbance at the isosbestic point remains unchanged during the deoxygenation process of the hemoglobin, however the measuring wavelength (560 nm) undergoes a drastic change in absorbance. This change is detected by the electronic circuitry and is plotted as the log/ratio change between the two wavelengths. The log/ratio measurement at 560 nm and 570 nm is utilized to measure the optical absorbance change during the deoxygenation of the hemoglobin. Simultaneously with the measurement of the hemoglobin absorbance, the oxygen concentration is directly measured in the sample using a Clark electrode. […]

O=C([C@H](CO)c1ccccc1)N1CC2=C(C1)CN(S(=O)(=O)c1cnc3c(c1)OCCO3)C2 (single isomer, unassigned) [Compound 1]
exposure under fed/fasted conditions [1]: similar
mean absolute change in p50, relative to baseline ([2]; SCD 300 mg QD for 14 days, 24 hours after the final dose): −4 mmHg
p50 (Oxygen affinity curve) ([2]; SCD single 700 mg, Post-dose (24 hours), median (range), pre-dose 29.4 (26.1, 32.3)): 25.8 (23.3, 26.8)
mean absolute change in p50, relative to baseline ([2]; SCD, 24 hours after single 700 mg dose): −4 mmHg
